Measured values taken from USRE46397E1, “Slow release of organic salts of local anesthetics for pain relief” (SVIP5 LLC, priority 2007, dated 2017).
Like-named read-outs stand apart in the source and are kept apart here.

Assays:
[1] = tested on: male, Sprague-Dawley rat; test: Radiant heat pain threshold test after introducing particles into a paraspinal pocket; type: in vivo; conditions: 20 seconds cut-off, treated right side
Experimental: To test the local anesthetic efficacy and duration of effect induced by bupivacaine palmitate particles, a treatment and control side in a male, Sprague-Dawley rat (250-300 g) was employed. The animal was anesthetized with isoflurane inhalation (2.5-3%), whereupon the back was partly shaved. A 16 g needle was introduced deep to the shaved skin on the left mid paraspinal back and moved side to side to clear a small (1.0 cm diameter) pocket. A similar procedure was performed on the right side. The needle was then used to introduce test local anesthetic bupivacaine palmitate particles into the pocket on the right side.
The rat was awakened and placed in a Decapicone for restraint. As restraint itself can produce endogenous analgesic effects, the animal was allowed to rest quietly in the cone for 15 min prior to any testing. Radiant heat from a focused projection bulb with area of approximately 0.5 cm^2 was then directed to the test areas to assess the pain threshold several times on each side. The light was applied until the rat attempted to move within the restraint cone, at which time the light heat stimulus was turned off. The light heat stimulus was never allowed to exceed a 20 seconds interval in order to avoid permanent damage to the skin or undue discomfort.
The post-procedural results at 15 min, 1 and 2 days are represented in average number of seconds before movement: […]

[2] = cited from earlier work; for Onset: in vivo; for Duration: without epinephrine
[3] = cited from earlier work; for Maximum Dose: without epinephrine

| Compound | average number of seconds before movement ([1]; Day 0 (15 min post-procedure), radiant heat) | average number of seconds before movement ([1]; Day 1, radiant heat) | average number of seconds before movement ([1]; Day 2, radiant heat) | Onset [2] | Duration (with Epinephrine) [2] | Duration [2] | Maximum Dose (with Epinephrine) [3] | Maximum Dose [3] | Maximum Dose ([3]; total in 24 hrs) |
| --- | --- | --- | --- | --- | --- | --- | --- | --- | --- |
| CCCCN1CCCCC1C(=O)Nc1c(C)cccc1C (stereo not shown) [Bupivacaine] | >20 s | 16 s | 7.6 s | Slow | (8 h) | 4 h | (3 mg/kg) | 2.5 mg/kg |  |
| CCN(CC)CCOC(=O)c1ccc(N)cc1Cl [Chloroprocaine] |  |  |  | Rapid | (90 min) | 0.5 h | (15 mg/kg) | 10 mg/kg |  |
| CCCN(CC)C(CC)C(=O)Nc1c(C)cccc1C (stereo not shown) [Etidocaine] |  |  |  | Rapid | (8 h) | 4 h | (4 mg/kg) | 2.5 mg/kg |  |
| CCCCN1CCCC[C@H]1C(=O)Nc1c(C)cccc1C [Levobupivacaine] |  |  |  | Medium | (8-12 h) | 4 to 6 h |  | 2.0 mg/kg | 400 mg in 24 hrs |
| CCN(CC)CC(=O)Nc1c(C)cccc1C [Lidocaine, 2-(diethylamino)-N-(2,6-dimethylphenyl)-acetamide] |  |  |  | Rapid | (240 min) | 2 h | (7 mg/kg) | 4.5 mg/kg |  |
| Cc1cccc(C)c1NC(=O)C1CCCCN1C (stereo not shown) [Mepivacaine] |  |  |  | Rapid | (360 min) | 3 h | (7 mg/kg) | 5 mg/kg |  |
| CCCNC(C)C(=O)Nc1ccccc1C (stereo not shown) [Prilocaine] |  |  |  | Medium | (360 min) | 1.5 h | (7.5 mg/kg) | 5 mg/kg |  |
| CCN(CC)CCOC(=O)c1ccc(N)cc1 [Procaine] |  |  |  | Slow | (90 min) | 0.75 h | (10 mg/kg) | 8 mg/kg |  |
| CCCN1CCCC[C@H]1C(=O)Nc1c(C)cccc1C [Ropivacaine] |  |  |  | Medium | (6 h) | 3 h |  | 2 to 3 mg/kg |  |
| CCCCNc1ccc(C(=O)OCCN(C)C)cc1 [Tetracaine] |  |  |  | Slow | (10 h) | 3 h | (2.5 mg/kg) | 1.5 mg/kg |  |
